# Assay results taken from patent US20020055094A1 (priority 1996, published 2002).
# Tests used:
# Type in all cases: binding
# [1] = tested on: NWS/G70C influenza A virus
# [2] = tested on: NWS/G70C influenza A virus; remark: listed apart in the source
# [3] = tested on: influenza A NWS/G70C
compound,measurement,setting,value
"CC(=O)N[C@H]1[C@H]([C@H](OC(=O)NCCCCCCNC(=O)CNC(=O)CNC(=O)CNC(=O)CCCC[C@@H]2SC[C@@H]3NC(=O)N[C@@H]32)[C@H](O)CO)OC(C(=O)O)=C[C@@H]1NC(=N)N [Compound No. 21, 5-acetamido-7-(6′-biotinylamino-tricrlycinamido-hexy) -carbamoyloxy-4-guanidino-2,3,4,5-tetradeoxy-D-glycerQ-D-galacto-non-2-enopyranosonic acid]",compound concentration giving the best result,[1],0.01 µM
same,virus detection limit of captured complex,[1],≤ 0.625×10^5 pfu
same,minimum virus detectable,[2],about 10^5 virus particles per well
"CC(=O)N[C@H]1[C@H]([C@H](OC(=O)NCCCCCCNC(=O)NCCCCCCN)[C@H](O)CO)OC(C(=O)O)=C[C@@H]1NC(=N)N [Compound No. 8, 5-acetamido-7-[6′-(6″-aminohexylureido)-hexyl]-carbamoyloxy-4-guanidino-2,3,4,5-tetradeoxy-D-glycero-D-galacto-non-2-enopyranosonic acid]",signal in direct detection,[2],no signal at any concentration of virus
"5-acetamido-7-{6′-[6″-(6″′-biotinylaminocaproyl) -tri-amingcaroyl]-aminohexyl}-carbamoyloxy-4-guanidino -2,3,4,5-tetradeoxy-D-glycero-D-gaacto-non-2-enopyranosonic acid [Compound No. 26]",compound concentration giving the best results,[3],0.1 µM
same,virus amount readily detected,[3],2.5×10^5 pfu/well
